Laboratory results published in patent US4284769A, “Preparation of triazinyl nitriles” (priority 1975, dated 1981).

Experiments:
[1] = Polymerization constant Kp of radical initiators in styrene (dilatometer); details: initiator 0.05% by weight for poorly soluble ones, normally 0.2%
Experimental: (§1) In these examples the reactivities are determined of the radical initiators and polymerization initiators according to the invention and some known radical initiators. The reactivity is indicated with the polymerization constant Kp. The latter is very much dependent on the temperature and occurs in the formula Rp=Kp (M) (I)^1/2 where Rp is the polymerization speed, (M) the concentration of the monomer and (I) the concentration of the radical initiator (see "Die Makromolekulare Chemie" 157 (1972), p.279 ff). In all determinations 50 ml. of the monomer were mixed with the radial initiators listed in the following Table and transferred to a dilatometer. The dilatometer was cooled to -80° C., filled with nitrogen, followed by applying vacuum to it; the last two treatments were repeated three times. Then the dilatometer was placed in a thermostated bath which had been set to the polymerization temperature mentioned in the table below. The concentration values were determined in accordance with the standard dilatometric technique (see "Angewandte Chemie" 59 (1947), p90). From the values obtained the conversion and the Kp-values were successively determined. The Table below gives the values obtained for the compounds are prepared in the Examples I through VII. For comparison also the Kp-values of some known radical initiators, namely, α,α'-bis(methoxycarbo)α,α'-bis(p-methylphenyl)succinonitrile(dl) (IX), dilauroyl peroxide (X), di-t-butyl perpivalate (XI) and tert. butyl peroxypivalate (XII) are listed in the Table.
(§2) Because of the poor solubility of some of the radical initiators prepared in the preceding examples, the determination of the Kp-value was started from 0.05% by weight, whereas normally 0.2% by weight is included in the monomer to be polymerized. The Kp-values of other radical initiators in styrene are listed in the Tables 2 and 3 on page 283 of the aforementioned article in "Die Makromolekulare Chemie".

[2] = Polymerization constant Kp of radical initiators in methylmethacrylate (dilatometer); details: initiator 0.05% by weight for poorly soluble ones, normally 0.2%
Experimental: as §1, §2

SMILES | Kp-value × 10^4 ([1]; temperature 70 °C) | Kp-value × 10^4 ([1]; temperature 80 °C) | Kp-value × 10^4 ([2]; temperature 50 °C) | Kp-value × 10^4 ([2]; temperature 60 °C) | Kp-value × 10^4 ([1]; temperature 90 °C)
CC(C)(C)OOC(=O)C(C)(C)C [XI, di-t-butyl perpivalate, reference compound] | 4.2 | 10.1 | – | – | –
COc1ccc(C(C#N)(c2nc(OC)nc(OC)n2)C(C#N)(c2ccc(OC)cc2)c2nc(OC)nc(OC)n2)cc1 (stereo not drawn) [Example IV, α,α'-bis(p-methoxyphenyl)α,α'-bis(2,4-dimethoxy-1,3,5-triazine)succinonitrile] | – | – | 1.1 | 2.7 | –
CC(C)(C)OOC(=O)C(C)(C)C [XII, tert. butyl peroxypivalate, reference compound] | – | – | 3.0 | – | –
COc1nc(OC)nc(C(C#N)(c2ccc(Cl)cc2)C(C#N)(c2ccc(Cl)cc2)c2nc(OC)nc(OC)n2)n1 (stereo not drawn) [VII, α,α'-bis(p-chorophenyl)α,α'-bis(2,4-dimethoxy-1,3,5-triazine)succinonitrile] | 6.10 | 5.70 | 2.10 | 5.52 | –
Cc1ccc(C(C#N)(c2nc(N3CCCCC3)nc(N3CCCCC3)n2)C(C#N)(c2ccc(C)cc2)c2nc(N3CCCCC3)nc(N3CCCCC3)n2)cc1 (stereo not drawn) [VI, α,α'-bis(p-methylphenyl) α,α'-bis (2,4-dipiperidino-1,3,5-triazine)succinonitrile] | – | 1.60 | no polymerization | no polymerization | 3.56
CCCCCCCCCCCCCCCCCCOc1nc(OCCCCCCCCCCCCCCCCCC)nc(C(C#N)(c2ccc(C)cc2)C(C#N)(c2ccc(C)cc2)c2nc(OCCCCCCCCCCCCCCCCCC)nc(OCCCCCCCCCCCCCCCCCC)n2)n1 (stereo not drawn) [Example V, α,α'-bis(p-tolyl)α,α'-bis(2,4-distearoxy-1,3,5-triazine)succinonitrile] | 3.05 | 7.86 | 2.32 | 4.48 | –
CCCCCCCCCCCC(=O)OOC(=O)CCCCCCCCCCC [X, dilauroyl peroxide, reference compound] | 2.4 | 5.8 | – | – | –
CSc1nc(SC)nc(C(C#N)(c2ccc(C)cc2)C(C#N)(c2ccc(C)cc2)c2nc(SC)nc(SC)n2)n1 (stereo not drawn) [Example III, α,α'-bis(p-methylphenyl)α,α'-bis(2,4-dimethylthio-1,3,5-triazine)succinonitrile] | – | – | 2.85 | 5.92 | –
COC(=O)[C@](C#N)(c1ccc(C)cc1)[C@](C#N)(C(=O)OC)c1ccc(C)cc1 (relative stereo) [IX, α,α'-bis(methoxycarbo)α,α'-bis(p-methylphenyl)succinonitrile(dl), reference compound] | 1.3 | 3.4 | – | – | –
COc1nc(OC)nc(C(C#N)(c2ccc(C)cc2)C(C#N)(c2ccc(C)cc2)c2nc(OC)nc(OC)n2)n1 (stereo not shown) [I + II] | – | – | 3.85 | 7.5 | –
